According to article PMC7407272, “Induction of Lysosome Membrane Permeabilization as a Therapeutic Strategy to Target Pancreatic Cancer Stem Cells” (Cancers, 2020):

How the values were obtained:
[1] = test system: mouse embryonic stem cells (mESCs); assay: mESC viability (MTS) screen and dose response; format: cell-based; settings: Mus musculus, Embryonic stem cell, 30 h
Protocol: (§1) Mouse embryonic stem cells were cultured in Dulbecco’s Modified Eagle Medium (DMEM) containing 15% Fetal bovine serum (FBS), non-essential amino acids (NEAA), 2-mercaptoethanol, and Leukemia inhibitory factor (LIF) and passaged on gelatinized plates under standard conditions.
(§2) Murine embryonic stem cells (mESCs) were plated at 20,000 cells per well in gelatinized 96 well plates. Compounds from the 640 compound ETP library were added by a Beckman FX 96 tip to achieve a final concentration of 5 µM in each well, and each compound was tested in duplicate. Cells were treated for a total of 30 h prior to assessing cell viability using CellTiter 96® AQueous One Solution Cell Proliferation Assay (MTS) assay according to manufacturer’s instructions (G3582, Promega, Madison, WI, USA). Dose response curves were carried out on mESCs under the same conditions using indicated compounds. To test the viability of CSCs, 10,000 PDAC cells were plated in spheroid conditions and immediately treated with indicated compounds and concentrations for the duration of the sphere formation assay. For adherent non-CSCs, 20,000 cells were plated in wells of standard tissue culture-treated plates (Corning, Corning, NY, USA) and treated the following day with indicated compounds and concentrations. For re-plated spheres (Figure S1B), 7-day-old spheres were filtered using a 40 µM filter (Fisher Scientific, Hampton, NH, USA), washed once with 1× PBS, and incubated with trypsin 0.05% EDTA at 37 °C (Thermo Fisher Scientific, Waltham, MA, USA) to achieve a single cell suspension (approximately 10–30 min, depending on the PDAC culture). Trypsinized cells were counted and 20,000 cells were plated in wells of standard tissue culture-treated plates (Corning) and treated the following day with indicated compounds and concentrations.

[2] = mESC viability (MTS) screen and dose response; format: cell-based, mouse; settings: mouse, mouse embryonic stem cells (mESCs), 5 µM, MTS
Protocol: as §1, §2

PDAC4 3D spheres = assay: Viability curves on PDAC4 3D spheres; format: cell-based, human; settings: 30 h
Description: The PDAC patient-derived xenograft (PDX) Panc354 (referred to hereafter as PDAC3) was obtained from Dr. Manuel Hidalgo under a Material Transfer Agreement with the Spanish National Cancer Centre (CNIO), Madrid, Spain (Reference no. I409181220BSMH). PDAC1, PDAC2 and PDAC4 PDXs were established from primary patient resected tumors. Samples were provided by the BioBank Hospital Ramón y Cajal-IRYCIS (PT13/0010/0002), integrated in the Spanish National Biobanks Network and they were processed following standard operating procedures with the appropriate approval of the Ethical and Scientific Committees (Control no. No. Control: DE-BIOB-73 AC65, RG.BIOB-96 REV, and CI-BIOB-08-10-01 rev), with informed consent and according to Declaration of Helsinki principles. Primary patient tumors were subcutaneously implanted in immunocompromised female 6- to 8-week-old NU-Foxn1nu nude mice (Envigo, Barcelona, Spain) and subsequently passage in vivo to establish PDX PDAC1, PDAC2 and PDAC4. Primary PDX-derived in vitro cultures were established as previously detailed. […]
Pancreatic CSC spheres were generated as previously described in ultra-low attachment plates (Corning) using CSC media: serum-free DMEM/F12 medium (1:1; #21331-020; Gibco, Waltham, MA, USA), supplemented with Pen/Strep (1:100; #1500-063; Gibco, Waltham, MA, USA), Fungizone (1:250; #15290-018; Gibco), L-Glutamine (1:100; #25030-024; Gibco, Waltham, MA, USA), B-27 (1:50; #17504-044; Gibco, Waltham, MA, USA) and basic fibroblast growth factor (FGF-b) (1:5000; Gibco, Waltham, MA, USA). […] To quantify spheres of > 40 μm, 1 mL of sample volume was analyzed with a CASY® Cell Counter (Roche Applied Sciences, Mannheim, Germany). […]

[3] = test system: sphere-derived PDAC2 cells; assay: Tumor initiating capacity of pre-treated cells injected subcutaneously; format: in vivo, NU-Foxn1nu nude mice; settings: cells treated 3 days with 0.1 µg/mL GEM or compound at 1.25 µM, then injected subcutaneously
Protocol: (§3) Female 6- to 8-week-old NU-Foxn1nu nude mice (Envigo, Spain) were subcutaneously injected with control or pre-treated 1 × 10^4 PDAC cells in 50 µL of Matrigel^TM (Corning). Tumor growth was monitored bi-weekly for up to 10 weeks. For Siramesine experiments, mice were subcutaneously implanted with PDAC1 and PDAC3 PDXs. After 4 weeks of tumor growth, mice were randomized into treatment groups (5 mice per group). Mice were treated with Siramesine twice a week (30 mg/kg by oral gavage formulated in 0.5% methylcellulose 15 cP in 0.9% NaCl solution) for ~4 weeks. Gemcitabine (GEMZAR®, Eli Lilly, Indianapolis, IN, USA) was administered twice a week (125 mg/kg i.p.) for ~4 weeks. Tumor volumes (mm^3) were determined twice per week using a digital caliper. Mice were sacrificed at 24 days post treatment initiation and tumors were extracted and analyzed by flow cytometry as described above. For second generation tumor formation, 1000 and 100 cells of indicated treatment groups were resuspended in Matrigel ^TM and injected subcutaneously in recipient NU-Foxn1nu nude mice and tumor formation was monitored for 10 weeks. Mice were housed according to institutional guidelines and all experiments were performed in compliance with the institutional guidelines for the welfare of experimental animals approved by the Universidad Autónoma de Madrid Ethics Committee (CEI 60-1057-A068) or by the Instituto de Salud Carlos III Ethics Committee (CBA12_2014-v3) and La Comunidad de Madrid (PROEX 335/14 or PROEX 53/14) and in accordance with the guidelines for Ethical Conduct in the Care and Use of Animals as stated in The International Guiding Principles for Biomedical Research involving Animals, developed by the Council for International Organizations of Medical Sciences (CIOMS).

PDAC1 tumor cells = assay: Second generation tumor formation (serial passage, ELDA); format: in vivo, NU-Foxn1nu nude mice
Protocol: as §3
(§4) Results are presented as means ± standard error of the mean (SEM) unless stated otherwise. An unpaired two-tailed t test was performed to determine significance. p values < 0.05 were considered statistically significant. All analyses were performed using GraphPad Prism version 6.0 (San Diego, California USA). CSC frequencies and significance were determined using the on-line extreme-limiting dilution assays (ELDA) program (http://bioinf.wehi.edu.au/software/elda/).

PDAC3 tumor cells = assay: as above; format: in vivo, NU-Foxn1nu nude mice
Protocol: as §3, §4

PDAC4 cultures = assay: Sphere formation assay; format: cell-based, human; settings: 0.1 µg/mL GEM or Cpd 1 at 1.25 or 2.5 µM
Description: (§5) Pancreatic CSC spheres were generated as previously described in ultra-low attachment plates (Corning) using CSC media: serum-free DMEM/F12 medium (1:1; #21331-020; Gibco, Waltham, MA, USA), supplemented with Pen/Strep (1:100; #1500-063; Gibco, Waltham, MA, USA), Fungizone (1:250; #15290-018; Gibco), L-Glutamine (1:100; #25030-024; Gibco, Waltham, MA, USA), B-27 (1:50; #17504-044; Gibco, Waltham, MA, USA) and basic fibroblast growth factor (FGF-b) (1:5000; Gibco, Waltham, MA, USA). All cell culture was carried out at 37 °C in a 5% CO2 humidified incubator. To quantify spheres of > 40 μm, 1 mL of sample volume was analyzed with a CASY® Cell Counter (Roche Applied Sciences, Mannheim, Germany). The CASY® Cell Counter measuring principle is based on a capillary particle counter with pulse area analysis, that permits the determination of cell count, cell concentration, cell volume (peak), and average cell diameter, specifically diameters of 40–80 μm, 80–120 μm and >120 μm.

PDAC2 cultures = assay: Sphere formation assay; format: cell-based, human; settings: 0.1 µg/mL GEM or Cpd 1 at 1.25 or 2.5 µM
Description: as §5

PDAC3 xenografts = assay: PDX treatment in nude mice; format: in vivo, NU-Foxn1nu nude mice; settings: PDAC3 PDX; GEM 125 mg/kg i.p. biweekly, SIR 30 mg/kg oral gavage; 23 days
Protocol: (§6) Cells were analyzed with a 4-laser Attune NxT Acoustic Cytometer (ThermoFisher Scientific). Cells and digested tumors (as described in [41]) were resuspended in FLOW buffer (1X PBS; 3 mM EDTA (v/v); 3% FBS (v/v)), and the following fluorescently-tagged antibodies were used to label cells for 30 min at 4 °C: Mouse monoclonal anti-human CD133-PE (1:20, Cat no. 130-110-962, Miltenyi, Bergisch Gladbach, Germany), Mouse monoclonal anti-human CD133-APC (1:20, Cat no. 130-111-080, Miltenyi, Bergisch Gladbach, Germany), mouse monoclonal anti-human C-X-C chemokine receptor type 4- Phycoerythrin (CXCR4-PE) (1:20, Cat no. 130-117-354, Miltenyi, Bergisch Gladbach, Germany), or mouse monoclonal anti-human Epithelial cell adhesion molecule-fluorescein isothiocyanate (EpCAM-FITC) (1:20, Cat no. 130-111-115, Miltenyi, Bergisch Gladbach, Germany). Autofluorescent cells were excited with blue laser 488nm and selected as the intersection with the filters 530/40 and 580/30 as previously described. For lysosomes quantification, Acridine Orange (AO) (A1301, Thermo Fisher Scientific, Waltham, MA, USA) or Lysotracker Deep Red (DR) (L12492, Molecular probes, Life Technologies, Waltham, MA, USA) were used. AO fluorescence was assessed with two combinations of excitation and emission spectra: BL1 […] BL3 (Ex488/Em695/40, equal to the far-red channel (>670 nm)) Lysotracker DR fluorescence was assessed with RL1 (Ex638/Em670/14). Bafilomycin A1 (100 nM, Calbiochem, San Diego, CA, USA) was included as a positive control for lysosome disruption. For Annexin V staining, floating and attached cells were pooled and resuspended in 1× AnnexinV staining buffer containing AnnexinV-APC diluted 1:20 (Biotium, Freemont, CA, USA) and incubated for 20 min at room temperature prior to flow cytometric analysis. For all assays, DAPI was used to mark and exclude dead cells, and data were analyzed using the software FlowJo v9.3 (Tree Star Inc., Ashland, OR, USA).
as §3

PDAC1 xenografts = assay: PDX treatment in nude mice; format: in vivo, NU-Foxn1nu nude mice
Protocol: as §6, §3

PDAC2 3D spheres = assay: Viability curves on PDAC2 3D spheres; format: cell-based, human; settings: Homo sapiens, PDAC-2, 30 h; read-out: EC50 (viability), PDAC2 spheres
Description: The PDAC patient-derived xenograft (PDX) Panc354 (referred to hereafter as PDAC3) was obtained from Dr. Manuel Hidalgo under a Material Transfer Agreement with the Spanish National Cancer Centre (CNIO), Madrid, Spain (Reference no. I409181220BSMH). PDAC1, PDAC2 and PDAC4 PDXs were established from primary patient resected tumors. Samples were provided by the BioBank Hospital Ramón y Cajal-IRYCIS (PT13/0010/0002), integrated in the Spanish National Biobanks Network and they were processed following standard operating procedures with the appropriate approval of the Ethical and Scientific Committees (Control no. No. Control: DE-BIOB-73 AC65, RG.BIOB-96 REV, and CI-BIOB-08-10-01 rev), with informed consent and according to Declaration of Helsinki principles. Primary patient tumors were subcutaneously implanted in immunocompromised female 6- to 8-week-old NU-Foxn1nu nude mice (Envigo, Barcelona, Spain) and subsequently passage in vivo to establish PDX PDAC1, PDAC2 and PDAC4. Primary PDX-derived in vitro cultures were established as previously detailed. Briefly, xenografts were minced, enzymatically digested with collagenase (Stem Cell Technologies) for 60 min at 37 °C and after centrifugation for 5 min at 1800 rpm, the cell pellets were resuspended and cultured in RPMI (1:1; #61870-010; Gibco, Waltham, MA, USA) supplemented with 10% FBS (Invitrogen, Waltham, MA, USA), Pen/Strep (1:100; #1500-063; Gibco, Waltham, MA, USA), and Fungizone (1:250; #15290-018; Gibco, Waltham, MA, USA). Primary cultures were tested for Mycoplasma at least every 4 weeks.
as §5
Murine embryonic stem cells (mESCs) were plated at 20,000 cells per well in gelatinized 96 well plates. Compounds from the 640 compound ETP library were added by a Beckman FX 96 tip to achieve a final concentration of 5 µM in each well, and each compound was tested in duplicate. Cells were treated for a total of 30 h prior to assessing cell viability using CellTiter 96® AQueous One Solution Cell Proliferation Assay (MTS) assay according to manufacturer’s instructions (G3582, Promega, Madison, WI, USA). Dose response curves were carried out on mESCs under the same conditions using indicated compounds. To test the viability of CSCs, 10,000 PDAC cells were plated in spheroid conditions and immediately treated with indicated compounds and concentrations for the duration of the sphere formation assay. […]

O=C(Nc1cccc(OC(F)(F)F)c1)c1cnc2ccc(N3CCCC4(CCNCC4)C3)nn12 [Cpd 3]
EC50 [1]: 1500 nM | viability at 30 h, 5 µM [2]: 9%

C#CCCC1(CCN2CCC(CNc3ccc4ncc(C(=O)Nc5cccc(OC(F)(F)F)c5)n4n3)CC2)N=N1 [Cpd 25, 6-({1-[2-(3-But-3-ynyl-3H-diazirin-3-yl)-ethyl]-piperidin-4-ylmethyl}-amino)-imidazo [1,2-b]pyridazine-3-carboxylic acid (3-trifluoromethoxy-phenyl)-amide]
EC50 (PDAC4 3D spheres; Homo sapiens): 2620 nM

C#CCCC1(CC(=O)N2CCC(CNc3ccc4ncc(C(=O)Nc5cccc(OC(F)(F)F)c5)n4n3)CC2)N=N1 [Cpd 26, 6-({1-[2-(3-But-3-ynyl-3H-diazirin-3-yl)-acetyl]-piperidin-4-ylmethyl}-amino)-imidazo[1,2-b]pyridazine-3-carboxylic acid (3-trifluoromethoxy-phenyl)-amide]
effect on PDAC4 CSC viability (PDAC4 3D spheres): inactive

Nc1ccn([C@@H]2O[C@H](CO)[C@@H](O)C2(F)F)c(=O)n1 [gemcitabine]
tumor formation / growth from pre-treated cells [3]: gave rise to larger tumors | CSC freq (PDAC1 tumor cells; PDAC1, Extreme Limiting Dilution Analysis, listed as GEM): 1/272 | Tumors/n (2nd generation) (PDAC1 tumor cells; PDAC1, no. cells 10^2): 5/8 | Tumors/n (2nd generation) (PDAC1 tumor cells; PDAC1, no. cells 10^3): 7/8 | CSC freq (PDAC3 tumor cells; PDAC3, Extreme Limiting Dilution Analysis, listed as GEM): 1/102 | Tumors/n (2nd generation) (PDAC3 tumor cells; PDAC3, no. cells 10^2): 5/8 | Tumors/n (2nd generation) (PDAC3 tumor cells; PDAC3, no. cells 10^3): 8/8 | sphere-forming capacity (PDAC4 cultures): increased | sphere-forming capacity (PDAC2 cultures): did not affect sphere formation | tumor volume versus control (PDAC3 xenografts): significantly reduced | tumor volume versus control (PDAC1 xenografts; PDAC1 PDX, GEM 125 mg/kg i.p. biweekly, SIR 30 mg/kg oral gavage, 23 days): significantly reduced | autofluorescent-positive cells in tumors (PDAC1 xenografts; PDAC1 tumors, day 23, flow cytometry): marked increase

OC(c1cc(C(F)(F)F)nc2c(C(F)(F)F)cccc12)C1CCCCN1 (centres unmarked) [mefloquine, reference compound]
EC50 (PDAC2 3D spheres): 7600 nM
